From patent publication US7183252B2, “Indole peptidomimetics as thrombin receptor antagonists” (Ortho-McNeil Pharmaceutical, Inc., priority 1999, dated 2007)

Columns and labels:
gel-filtered platelets = assay: In vitro inhibition of thrombin-induced gel-filtered platelet aggregation; assay type: cell-based; conditions: Platelet; human gel-filtered platelets; agonist thrombin 50 μL of 1 unit/mL; read-out: Thrmb IC50 (Thrombin-induced aggregation of gel-filtered platelets)
Summary of the method: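 Gel-filtered (Sepharose 2B) human platelets from citrated PRP, 2×10^7 per sample, in Tyrode's buffer pH 7.4 with BSA and added calcium, preincubated with test compound. Aggregation induced by thrombin (50 μL of 1 unit/mL) and followed as light transmission over 3 min. Inhibition is taken relative to control-treated platelets.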

[1] = biological target: T1, thrombin receptor (PAR-1) (Homo sapiens, UniProt P25116); assay: In vitro thrombin receptor binding assay (CHRF membranes); conditions: tritiated 721-40 radioligand, read-out: Bndg IC50 (Thrombin receptor binding)
T1 construct: CHRF membranes (Jones, Biochim. Biophys. Acta 1992, 1136, 272) are thawed from −70° C; endogenous in cells; host or cells: CHRF cell membranes
T1 sequence (P25116 22-425): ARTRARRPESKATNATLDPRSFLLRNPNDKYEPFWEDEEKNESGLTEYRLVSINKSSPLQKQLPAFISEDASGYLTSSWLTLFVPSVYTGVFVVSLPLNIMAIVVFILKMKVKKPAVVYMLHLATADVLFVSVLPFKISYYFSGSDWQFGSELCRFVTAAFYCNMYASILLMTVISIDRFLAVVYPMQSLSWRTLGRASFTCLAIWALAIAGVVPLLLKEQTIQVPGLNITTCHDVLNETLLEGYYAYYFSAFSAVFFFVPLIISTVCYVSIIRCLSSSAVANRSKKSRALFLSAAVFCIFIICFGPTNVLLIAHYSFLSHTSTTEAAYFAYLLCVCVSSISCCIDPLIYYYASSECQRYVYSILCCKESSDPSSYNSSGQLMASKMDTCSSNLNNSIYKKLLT
Summary of the method: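 CHRF cell membranes incubated 30 min with tritiated peptide agonist 721–40 and compound at 3.7 μg/mL final (0.6% DMSO) in HEPES/MgCl2/BSA buffer. Nonspecific binding defined with unlabeled 721–40; bound radioactivity counted after filtration onto PEI-treated filters.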

Row | Structure (SMILES) | IC50 (gel-filtered platelets) [nM] | IC50 [1] [nM]
1 | Cc1ccccc1Cn1c(Cl)c(CN2CCCC2)c2ccc(NC(=O)N[C@@H](Cc3cccc(F)c3)C(=O)N[C@@H](CCCN=C(N)N)C(=O)NCc3ccc(F)cc3)cc21 [Compound 173] | 2000 | 760
2 | N=C(N)NCCC[C@H](NC(=O)[C@H](Cc1ccc(F)c(F)c1)NC(=O)Nc1ccc2c(CN3CCCC3)cn(Cc3c(Cl)cccc3Cl)c2c1)C(=O)NCCCCCN [Compound 81] | 410 | 70
